From the NIST ThermoML archive (doi:10.1021/je600562n)
“And” between values parts separate entries of the source, which are not always exact repeats. Identical values can stand only once. ± gives the expanded uncertainty stated by the source.

Conditions: Liquid; for mass density: Vibrating tube method; for viscosity: Vibrating wire viscometry

## CC(C)CCCCCCCOC(=O)c1ccccc1C(=O)OCCCCCCCC(C)C
298.15 K, 101.33 kPa
  mass density: 963.81 ± 0.97 kg/m3 [middle of 7 runs]
  viscosity: 87.2 ± 1.9 mPa·s and 87.5 ± 2 mPa·s and 87.3 ± 2 mPa·s
298.15 K, 5000 kPa
  mass density: 962.8 ± 2.9 kg/m3
298.15 K, 10000 kPa
  mass density: 965.6 ± 2.9 kg/m3
  viscosity: 107.3 ± 2.5 mPa·s
298.15 K, 20000 kPa
  mass density: 970.8 ± 2.9 kg/m3
298.15 K, 30000 kPa
  mass density: 976 ± 2.9 kg/m3
298.15 K, 50000 kPa
  mass density: 985.5 ± 3 kg/m3
298.15 K, 70000 kPa
  mass density: 995.2 ± 3 kg/m3
303.15 K, 101.33 kPa
  viscosity: 64.6 ± 1.3 mPa·s
303.15 K, 10000 kPa
  viscosity: 78.5 ± 1.9 mPa·s
303.15 K, 20000 kPa
  viscosity: 98 ± 2.5 mPa·s
303.15 K, 30000 kPa
  viscosity: 120.9 ± 3.2 mPa·s
308.15 K, 101.33 kPa
  viscosity: 48.99 ± 1 mPa·s
308.15 K, 10000 kPa
  viscosity: 60.3 ± 1.3 mPa·s
308.15 K, 20000 kPa
  viscosity: 73.1 ± 1.7 mPa·s
308.15 K, 30000 kPa
  viscosity: 89 ± 2.2 mPa·s
308.15 K, 50000 kPa
  viscosity: 135.4 ± 3.6 mPa·s
313.15 K, 101.33 kPa
  viscosity: 37.74 ± 0.77 mPa·s
313.15 K, 10000 kPa
  viscosity: 46.5 ± 1 mPa·s
313.15 K, 20000 kPa
  viscosity: 57 ± 1.3 mPa·s
313.15 K, 30000 kPa
  viscosity: 68.1 ± 1.6 mPa·s
313.15 K, 50000 kPa
  viscosity: 100.1 ± 2.5 mPa·s
323.15 K, 101.33 kPa
  mass density: 945.64 ± 0.95 kg/m3 [middle of 7 runs]
  viscosity: 23.85 ± 0.49 mPa·s and 23.84 ± 0.5 mPa·s
323.15 K, 5000 kPa
  mass density: 945.4 ± 2.9 kg/m3
323.15 K, 10000 kPa
  mass density: 948.5 ± 2.9 kg/m3
  viscosity: 29.24 ± 0.6 mPa·s
323.15 K, 20000 kPa
  mass density: 954.6 ± 2.9 kg/m3
  viscosity: 35.63 ± 0.8 mPa·s
323.15 K, 30000 kPa
  mass density: 960.4 ± 2.9 kg/m3
  viscosity: 42.46 ± 0.94 mPa·s
323.15 K, 50000 kPa
  mass density: 970.7 ± 2.9 kg/m3
  viscosity: 60.4 ± 1.3 mPa·s
323.15 K, 70000 kPa
  mass density: 980.1 ± 3 kg/m3
  viscosity: 80.6 ± 1.8 mPa·s
348.15 K, 101.33 kPa
  mass density: 927.68 ± 0.94 kg/m3 [middle of 7 runs]
  viscosity: 9.71 ± 0.19 mPa·s and 9.72 ± 0.19 mPa·s and 9.71 ± 0.2 mPa·s
348.15 K, 5000 kPa
  mass density: 927.9 ± 2.8 kg/m3
348.15 K, 10000 kPa
  mass density: 931.3 ± 2.8 kg/m3
  viscosity: 11.55 ± 0.25 mPa·s
348.15 K, 20000 kPa
  mass density: 938 ± 2.8 kg/m3
  viscosity: 13.81 ± 0.3 mPa·s
348.15 K, 30000 kPa
  mass density: 944.1 ± 2.8 kg/m3
  viscosity: 15.93 ± 0.34 mPa·s
348.15 K, 50000 kPa
  mass density: 955.3 ± 2.9 kg/m3
  viscosity: 21.5 ± 0.5 mPa·s
348.15 K, 70000 kPa
  mass density: 965.7 ± 2.9 kg/m3
  viscosity: 28.86 ± 0.76 mPa·s
363.15 K, 101.33 kPa
  mass density: 917.07 ± 0.92 kg/m3 [middle of 6 runs]
  viscosity: 6.39 ± 0.13 mPa·s
373.15 K, 101.33 kPa
  mass density: 907 ± 2.7 kg/m3
  viscosity: 5.03 ± 0.1 mPa·s
373.15 K, 5000 kPa
  mass density: 911.1 ± 2.8 kg/m3
373.15 K, 10000 kPa
  mass density: 914.8 ± 2.8 kg/m3
  viscosity: 5.92 ± 0.12 mPa·s
373.15 K, 20000 kPa
  mass density: 922.1 ± 2.8 kg/m3
  viscosity: 6.96 ± 0.15 mPa·s
373.15 K, 30000 kPa
  mass density: 929 ± 2.8 kg/m3
  viscosity: 7.84 ± 0.17 mPa·s
373.15 K, 50000 kPa
  mass density: 941 ± 2.8 kg/m3
  viscosity: 10.33 ± 0.22 mPa·s
373.15 K, 70000 kPa
  mass density: 952.1 ± 2.9 kg/m3
  viscosity: 13.45 ± 0.32 mPa·s
398.15 K, 101.33 kPa
  viscosity: 3.043 ± 0.063 mPa·s
398.15 K, 5000 kPa
  mass density: 893.4 ± 2.7 kg/m3
398.15 K, 10000 kPa
  mass density: 898.8 ± 2.7 kg/m3
  viscosity: 3.601 ± 0.074 mPa·s
398.15 K, 20000 kPa
  mass density: 906.6 ± 2.7 kg/m3
  viscosity: 4.12 ± 0.09 mPa·s
398.15 K, 30000 kPa
  mass density: 913.5 ± 2.8 kg/m3
  viscosity: 4.741 ± 0.1 mPa·s
398.15 K, 50000 kPa
  mass density: 926 ± 2.8 kg/m3
  viscosity: 5.98 ± 0.13 mPa·s
398.15 K, 70000 kPa
  mass density: 938.9 ± 2.8 kg/m3
  viscosity: 7.64 ± 0.17 mPa·s
423.15 K, 101.33 kPa
  viscosity: 2.052 ± 0.042 mPa·s
423.15 K, 5000 kPa
  mass density: 877.5 ± 2.7 kg/m3
423.15 K, 10000 kPa
  mass density: 881.6 ± 2.7 kg/m3
  viscosity: 2.401 ± 0.052 mPa·s
423.15 K, 20000 kPa
  mass density: 890.4 ± 2.7 kg/m3
  viscosity: 2.707 ± 0.058 mPa·s
423.15 K, 30000 kPa
  mass density: 898.6 ± 2.7 kg/m3
  viscosity: 3.001 ± 0.065 mPa·s
423.15 K, 50000 kPa
  mass density: 912.6 ± 2.8 kg/m3
  viscosity: 3.857 ± 0.082 mPa·s
423.15 K, 70000 kPa
  mass density: 926.7 ± 2.8 kg/m3
  viscosity: 4.826 ± 0.1 mPa·s
